Results from patent US6630177B1, “Products extracted from a plant of the genus Commiphora, particularly the Commiphora mukul plant, extracts containing same and applications thereof, for example in cosmetics” (Parfums Christian Dior, priority 1995, dated 2003).
Entries after “also recorded” stand apart in the source; their conditions may differ.

Assays:
fibroblasts in culture = test: Lipogenic activity of the fractions on fibroblasts in culture; type: cell-based; details: result in words
Method: In a first step, the extract G is subjected to a series of fractionations by high performance liquid chromatography. Each fraction is tested for its lipogenic activity on fibroblasts in culture using the method explained below. These different fractionations ultimately yield an active fraction, FIIB, whose characteristic peaks are identified on the chromatogram.

3T3 F442A = test: Determination of the glycero-3-phosphate dehydrogenase (G3PDH) activity in treated fibroblast (preadipocyte) cultures; type: cell-based, murine; details: for Rate of conversion of NADH: 3T3 F442A cultures treated at 5 μg/ml on D+5, D+7, D+9, G3PDH assayed on D+12, mean of three experiments; for Activity A1 (stimulation of G3PDH activity versus control cultures): 3T3 F442A cultures, calculated from Vp and Vt
Description: The cells used are 3T3 F442A, which constitute a line of murine preadipocytes selected for their ability to convert to adipocytes if the culture conditions allow, in accordance with the method of Green, H. & Kehinde, C., Cell 1 (1974) 113.
The aim was to measure the expression of two differentiation markers, namely glycero-3-phosphate dehydrogenase (G3PDH) on the one hand and cyclic AMP (cAMP) on the other.
It is pointed out here that the enzyme G3PDH allows the formation, in the fibroblast, of glycerol 3-phosphate, a molecule which is subsequently involved in the synthesis of the intracellular lipids (triglycerides). Thus an increase in the activity of the G3PDH is directly linked to an increase in this synthesis.
The fibroblasts are inoculated at the bottom of Petri dishes of diameter 35 mm in Dulbecco's Modified Eagle's Medium (DMEM), in the presence of 5% of calf serum (CS) and 5% of fetal calf serum (FCS). Each experiment is performed in triplicate.
During the treatment phase, the medium consists of DMEM+10% of fetal calf serum.
The product or extract according to the invention is dissolved in ethanol and used on the cultures at a final concentration of 5 μg/ml.
On day D+5: treatment with resin of Commiphora mukul (extract G), FIIB1 or IIa or IIb at 5 μg/ml in DMEM, 10% FCS
On days D+7 and D+9: treatment identical to that performed on D+5
On day D+12: grinding of the cells for assay of G3PDH.
The cellular monolayer is recovered by scraping and vigorously homogenized in TRIS-HCl buffer (25 mM, pH 7.4), 1 mM EDTA, at 4° C. The G3PDH activity is determined on the supernatant of the ground cellular material immediately after centrifugation.
It is possible to calculate an absorption difference (ΔAbs)/min, which corresponds to the initial rate of the enzymatic reaction.
The results are expressed in terms of specific activity, i.e. in nmol of NADH converted/min/mg of cellular proteins (the total cellular protein content is evaluated by the method of BCA—PIERCE: protein assay reagent).
The activity Al of the products according to the invention on stimulation of the activity of this enzyme is calculated according to the following formula: [formula]
Vp is the mean value, over the three experiments, of the rate of conversion of NADH, expressed in nmol/min/mg of cellular proteins, in the cultures treated with the products according to the invention,
Vt is the mean value of this rate in the control cultures.

SMILES	Lipogenic activity (fibroblasts in culture)	Rate of conversion of NADH (3T3 F442A)	Activity A1 (stimulation of G3PDH activity versus control cultures) (3T3 F442A; 5 μg/ml) [%]	Increase of the activity of the enzyme G3PDH compared with control cultures (3T3 F442A; fibroblast cultures, 5 μg/ml) [fold]
C/C(=C\CC/C(C)=C/CC/C(C)=C/CC[C@@H]1[C@@]2(C)CCC(=O)C(C)(C)[C@@H]2CC[C@@]1(C)O)CO [IIa, (5R, 10S,8R,9R)-3-oxopolypoda-13E,17E,21E-triene-8,30-diol]	give the best results; also recorded: substantially equivalent	222 ± 88 nmol/min/mg of proteins	348	
C/C(=C\CC/C(C)=C/CC[C@@H]1[C@@]2(C)CCC(=O)C(C)(C)[C@@H]2CC[C@@]1(C)O)CC/C=C(\C)C(=O)O [IIb, (5R,10S,8R,9R)-8-hydroxy-3-oxopolypoda-13E,17E,21 E-trien-30-oic acid]	give the best results; also recorded: substantially equivalent	352 ± 62 nmol/min/mg of proteins	610	7
